Data as given in patent publication US20200079750A1, “COMPOUND OR SALT THEREOF, ANTIVIRAL AGENT, AND PHARMACEUTICAL COMPOSITION” (priority 2017, published 2020).

Tests used:
[1] = tested on: Towne strain of human cytomegalovirus (HCMV); assay: Evaluation of antiviral activity: viral load of HCMV-infected HEL cells by the plaque method; assay type: cell-based; conditions: for EC50: Human betaherpesvirus 5, HEL, 144 h, read-out: EC50 value (anti-HCMV effect)
Method: Diploid fibroblasts derived from human embryonic lung (Human embryonic lung fibroblasts; HEL cells) cultured in a 9.6 cm^2 petri dish until they became confluent using Dulbecco's Modified Eagle Medium (DMEM) to which 8% fetal calf serum (FCS) was added were prepared. The HEL cells were adsorbed and infected with a Towne strain of human cytomegalovirus (HCMV) with a multiplicity of infection (MOI) of 1, and cultured at 37° C. for 1 hour to obtain HCMV-infected cells.
The compound of the present invention or tricin which were serially diluted with dimethyl sulfoxide (compound concentration: 0.001, 0.01, 0.1, 1 and 10 μM) was added to the above HCMV-infected cells and cultured for 6 days. The number of infectious HCMV particles produced in the culture supernatant (viral load) was determined by the plaque method.
The plaque method was performed in the following manner. After the HEL cells cultured in a 24-well plate until they became confluent were adsorbed and infected with the culture supernatant which was 10-fold serially diluted at 37° C. for 1 hour, the 2% FCS and 0.4% agar-containing DMEM media were overlaid and then cultured. Several days (6 to 12 days) after the initiation of culture, the number of plaques appeared was counted under a microscope, and the viral load was measured.
A lower value of the relative value (the viral load against control) means a higher antiviral activity.
Using the compound obtained as mentioned above (the compound of the present invention), tricin and ganciclovir, the antiviral activity of each compound was evaluated in the same manner as in the above <Evaluation of Antiviral Activity—1>.

HEL cells = assay: Evaluation of cytotoxicity to HEL cells by LDH release assay; assay type: cell-based, human; conditions: 37° C. for 5 days, concentrations of at least up to 10 μM, FIG. 3
Method: Using the compound obtained as mentioned above (the compound of the present invention), tricin and flavopiridol, the cytotoxicity to the HEL cells was evaluated in accordance with the following procedure. Flavopiridol is a control compound in this Test Example, which is known to have toxicity although it functions as an antiviral agent.
The HEL cells were cultured at 37° C. for 5 days in the presence or absence of the above each compound. The proportion of viable cells after culture was calculated by the LDH release assay. The kit (trade name “Cyto Tox 96 (registered trademark) assay”, manufactured by Promega Corporation) was used for the assay. The test was repeated three times, and data were represented as mean±SD.

Row | SMILES | EC50 [1] [nM] | antiviral activity (viral load against control) ([1]; FIG. 1, compared with tricin, clearly observed at 0.001 to 1.000 μM) | antiviral activity (viral load against control) ([1]; FIG. 2, compared with tricin and ganciclovir, clearly observed at 0.1 to 1,000 nM) | anti-HCMV effect higher than that of ganciclovir ([1]; from EC50 values, versus ganciclovir) | anti-HCMV effect higher than that of tricin ([1]; from EC50 values, versus tricin) | cytotoxicity (proportion of viable cells) (HEL cells)
1 | Nc1nc(O)c2ncn(COC(CO)CO)c2n1 [ganciclovir, reference compound] | 27.5 | – | – | – | – | –
2 | COc1cc(-c2cc(=O)c3ccc(F)cc3o2)cc(OC)c1O [the compound of the present invention, 7-fluoro-4′-hydroxy-3′,5′-dimethoxyflavone] | 0.13 | remarkably higher antiviral activity than tricin | remarkably higher antiviral activity than tricin and ganciclovir | about 200 fold | about 400 fold | no cytotoxicity
3 | COc1cc(-c2cc(=O)c3c(O)cc(O)cc3o2)cc(OC)c1O [tricin, 4′,5,7-trihydroxy-3′,5′-dimethoxyflavone, reference compound] | 54.3 | – | – | – | – | –
